Structures can show the parent of a compound that is named as a salt. Marks after values point to notes of the source that are not given here.
What was measured:
[1] = Example 3 Part 1 (Regimen A) raltegravir + belumosudil plasma PK
Method: (§1) On Day 10, the victim and perpetrator IMPs were administered simultaneously.
(§2) On the evening before each dose, participants were provided with a light snack and were required to fast from all food and drink (except water) for a minimum of 10 hours until the following morning. All study interventions were administered in the fed state, following completion of a standard breakfast (with dosing planned to occur 30 minutes after the start of the breakfast).
(§3) The PK parameters underwent a natural logarithmic transformation and were analyzed using a mixed effect modelling technique. Adjusted geometric mean ratios and 90% confidence intervals (CIs) of the ratios were obtained for each comparison. The ratio was defined as test/reference. In addition, the intraparticipant variability were also presented. […] No formal interim analyses were performed for this study.

ROCK2 = ROCK2 (Homo sapiens, UniProt O75116); experiment: ROCK2 inhibition; assay type: biochemical
Sequence of ROCK2 (O75116 whole entry): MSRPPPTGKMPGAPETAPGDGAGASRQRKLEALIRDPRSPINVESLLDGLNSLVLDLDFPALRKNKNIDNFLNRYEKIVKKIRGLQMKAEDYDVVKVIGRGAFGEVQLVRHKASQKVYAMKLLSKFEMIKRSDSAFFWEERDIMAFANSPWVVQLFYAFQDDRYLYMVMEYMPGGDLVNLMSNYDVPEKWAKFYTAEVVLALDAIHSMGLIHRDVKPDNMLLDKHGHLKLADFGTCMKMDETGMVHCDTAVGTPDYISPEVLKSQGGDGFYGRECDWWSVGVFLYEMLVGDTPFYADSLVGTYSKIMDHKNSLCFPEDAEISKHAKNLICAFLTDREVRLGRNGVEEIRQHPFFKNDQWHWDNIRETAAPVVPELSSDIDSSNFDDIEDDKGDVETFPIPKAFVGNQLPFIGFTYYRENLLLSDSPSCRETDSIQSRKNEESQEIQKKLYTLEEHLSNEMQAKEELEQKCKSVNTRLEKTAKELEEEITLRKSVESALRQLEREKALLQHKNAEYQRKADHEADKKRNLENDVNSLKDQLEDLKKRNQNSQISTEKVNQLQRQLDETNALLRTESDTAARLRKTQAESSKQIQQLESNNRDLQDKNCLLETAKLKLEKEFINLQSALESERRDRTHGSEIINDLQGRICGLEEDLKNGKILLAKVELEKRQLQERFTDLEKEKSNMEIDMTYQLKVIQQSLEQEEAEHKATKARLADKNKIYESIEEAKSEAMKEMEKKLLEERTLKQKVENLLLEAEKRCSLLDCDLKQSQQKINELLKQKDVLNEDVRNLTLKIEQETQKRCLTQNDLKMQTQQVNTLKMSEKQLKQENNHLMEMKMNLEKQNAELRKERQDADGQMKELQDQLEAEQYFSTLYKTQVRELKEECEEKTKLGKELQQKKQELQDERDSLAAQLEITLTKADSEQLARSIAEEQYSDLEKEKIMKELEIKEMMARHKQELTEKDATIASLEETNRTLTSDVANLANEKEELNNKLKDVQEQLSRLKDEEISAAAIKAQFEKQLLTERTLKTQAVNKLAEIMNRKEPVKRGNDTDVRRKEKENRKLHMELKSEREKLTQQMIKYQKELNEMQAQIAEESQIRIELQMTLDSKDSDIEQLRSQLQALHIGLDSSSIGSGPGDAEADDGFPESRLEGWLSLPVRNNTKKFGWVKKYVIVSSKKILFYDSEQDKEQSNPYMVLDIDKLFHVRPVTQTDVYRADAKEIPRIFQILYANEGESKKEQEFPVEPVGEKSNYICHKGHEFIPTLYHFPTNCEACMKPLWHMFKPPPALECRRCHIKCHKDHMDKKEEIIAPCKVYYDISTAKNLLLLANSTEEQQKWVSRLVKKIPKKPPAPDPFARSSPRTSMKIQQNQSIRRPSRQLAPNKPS

[2] = Example 3 Part 2 (Regimen B) dabigatran etexilate + belumosudil plasma PK; assay type: in vivo, human
Method: The ratio was defined as test/reference. In addition, the intraparticipant variability were also presented. […] No formal interim analyses were performed for this study.

clinical = details: human, in vivo
Method: as §1, §2, §3

[3] = cited from earlier work
[4] = metabolite exposure in clinical trials of the belumosudil development program; assay type: in vivo, human
[5] = Raltegravir + belumosudil (Day 7), belumosudil 200 mg QD
[6] = Raltegravir alone (Day 1), 400 mg single dose
[7] = Dabigatran etexilate + belumosudil (Day 9), belumosudil 200 mg QD
[8] = Dabigatran etexilate alone (Day 1), 75 mg single dose
[9] = Regimen B, dabigatran etexilate 75 mg single dose + belumosudil 200 mg QD (Day 9)
[10] = dabigatran etexilate + belumosudil vs alone
[11] = dosed with belumosudil compared to dosing alone
[12] = Regimen A, raltegravir 400 mg single dose + belumosudil 200 mg QD (Day 7)
[13] = Regimen A, raltegravir 400 mg single dose alone (Day 1)
[14] = raltegravir + belumosudil vs raltegravir alone

Cc1nnc(C(=O)NC(C)(C)c2nc(C(=O)NCc3ccc(F)cc3)c(O)c(=O)n2C)o1 [raltegravir, reference compound]
Tmax, median [1, 5]: 3.000 h
Tmax, median [1, 6]: 3.000 h
AUC(0-inf) ([1]; male, human, in vivo, 400 mg): 1510 ng·h/mL
Cmax, adj geo mean ([1]; male, human, in vivo, 400 mg): 512 ng/mL
Cmax, geometric mean ([1]; male, human, in vivo, 400 mg): 520 ng/mL
T1/2, geometric mean ([1]; male, human, in vivo, 400 mg): 1.434 h
half-life ([1]; male, human, in vivo, 400 mg): ~84 min
AUC(0-t) ([1]; male, human, in vivo, 400 mg, AUC(0-24), geometric mean): 1970 ng·h/mL
AUC(0-t) ([1]; male, human, in vivo, 400 mg, AUC(0-last), adj geo mean): 1570 ng·h/mL
AUC(0-t) ([1]; male, human, in vivo, 400 mg, AUC(0-last), geometric mean): 1640 ng·h/mL

O=C(O)COc1cccc(-c2nc(Nc3ccc4[nH]ncc4c3)c3ccccc3n2)c1 [KD025m2]
ROCK2 activity of metabolite (ROCK2): ROCK2 inactive
increase of exposures (Cmax and AUC) following multiple dosing ([1]; human, in vivo): 1.30-1.49 fold
median Tmax ([1]; human, in vivo): 1.5 to 3 h
AUC(0-last), geometric mean ([1]; human, in vivo, 200 mg): 879 ng·h/mL
AUC(0-tau), geometric mean ([1]; human, in vivo, 200 mg): 961 ng·h/mL
Cmax, geometric mean ([1]; human, in vivo, 200 mg): 278 ng/mL
Tmax, median ([1]; human, in vivo, 200 mg): 2.00 h
increase of exposures (Cmax and AUC) following multiple dosing ([2]; human, in vivo): 1.27-1.42 fold
median Tmax ([2]; human, in vivo): 1.5 to 2 h
AUC(0-last), geometric mean ([2]; human, in vivo, 200 mg): 692 ng·h/mL
AUC(0-tau), geometric mean ([2]; human, in vivo, 200 mg): 746 ng·h/mL
Cmax, geometric mean ([2]; human, in vivo, 200 mg): 184 ng/mL
Tmax, median ([2]; human, in vivo, 200 mg): 2.000 h
increase of exposures (Cmax and AUC) following multiple dosing (clinical): 1.21-1.57 fold
median Tmax (clinical): 1.5 to 2 h
AUC(0-last), geometric mean (clinical; 200 mg): 557 ng·h/mL
AUC(0-tau), geometric mean (clinical; 200 mg): 598 ng·h/mL
Cmax, geometric mean (clinical; 200 mg): 215 ng/mL
Tmax, median (clinical; 200 mg): 2.000 h

[H]/N=C(/N)c1ccc(NCc2nc3cc(C(=O)N(CCC(=O)O)c4ccccn4)ccc3n2C)cc1 [unconjugated dabigatran, dabigatran, reference compound]
AUC(0-last), geometric mean [2, 7]: 682 ng·h/mL
Cmax, geometric mean [2, 7]: 99.5 ng/mL
T1/2, geometric mean [2, 7]: 8.293 h
Tmax, median [2, 7]: 2.000 h
AUC(0-last), geometric mean [2, 8]: 317 ng·h/mL
Cmax, geometric mean [2, 8]: 42.1 ng/mL
T1/2, geometric mean [2, 8]: 8.128 h
Tmax, median [2, 8]: 3.000 h
AUC(0-last), adj geo mean [2, 9]: 682 ng·h/mL
Cmax, adj geo mean [2, 9]: 99.5 ng/mL
Cmax, adj geo mean ([2]; Regimen B, dabigatran etexilate 75 mg single dose alone (Day 1)): 42.1 ng/mL
increase of exposure ([2]; coadministration of belumosudil): 2 fold
AUC(0-inf), ratio of adj geo means (test/reference) [2, 10]: 206.47%
AUC(0-last), ratio of adj geo means (test/reference) [2, 10]: 215.41%
Cmax, ratio of adj geo means (test/reference) [2, 10]: 236.06%
increase of overall exposure level [2, 11]: 2.06 fold
increase of peak exposure level [2, 11]: 2.36 fold
AUC(0-inf) ([2]; male, human, plasma, oral, 75 mg, Dabigatran etexilate alone (Day 1), 75 mg single dose, read-out: AUC(0-inf), geometric mean): 371 ng·h/mL
AUC(0-inf) ([2]; male, human, plasma, oral, 75 mg, Regimen B, dabigatran etexilate 75 mg single dose alone (Day 1), read-out: AUC(0-inf), adj geo mean): 398 ng·h/mL
AUC(0-inf) ([2]; male, human, plasma, oral, Dabigatran etexilate + belumosudil (Day 9), belumosudil 200 mg QD, read-out: AUC(0-inf), geometric mean): 801 ng·h/mL
AUC(0-inf) ([2]; male, human, plasma, oral, Regimen B, dabigatran etexilate 75 mg single dose + belumosudil 200 mg QD (Day 9), read-out: AUC(0-inf), adj geo mean): 822 ng·h/mL
AUC(0-t) ([2]; male, human, plasma, oral, Regimen B, dabigatran etexilate 75 mg single dose alone (Day 1), read-out: AUC(0-last), adj geo mean): 317 ng·h/mL

CC(C)c1nc(N(C)S(C)(=O)=O)nc(-c2ccc(F)cc2)c1/C=C/[C@@H](O)C[C@@H](O)CC(=O)O [rosuvastatin, reference compound]
increase of overall exposure level (clinical; male): 4.62 fold
increase of peak exposure level (clinical; male): 3.59 fold
AUC(0-inf) (clinical; male, 10 mg): 25.4 ng·h/mL
AUC(0-last), geometric mean (clinical; male, 10 mg): 13.6 ng·h/mL
AUC(0-t) (clinical; male, 10 mg): 13.6 ng·h/mL
Cmax, adj geo mean (clinical; male, 10 mg): 2.96 ng/mL
Cmax, geometric mean (clinical; male, 10 mg): 2.96 ng/mL

CC(C)NC(=O)COc1cccc(-c2nc(Nc3ccc4[nH]ncc4c3)c3ccccc3n2)c1 [Belumosudil mesylate, 2-{3-[4-(1H-indazol-5-ylamino)-2-quinazolinyl]phenoxy}-N-(propan-2-yl) acetamide methanesulfonate (1:1)]
solubility in DMF ([3]; DMF): slightly soluble
solubility in DMSO ([3]; DMSO): soluble
solubility in methanol ([3]; methanol): slightly soluble
solubility in water ([3]; water): practically insoluble

NC(=O)COc1cccc(-c2nc(Nc3ccc4[nH]ncc4c3)c3ccccc3n2)c1 [KD025m1]
ROCK2 activity of metabolite (ROCK2): ROCK2 active
exposure of metabolite relative to the parent [4]: < 5%
geometric mean T1/2 ([1]; human, in vivo): 1.6 to 2 h
median Tmax ([1]; human, in vivo): 1.5 to 3 h
AUC(0-last), geometric mean ([1]; human, in vivo, 200 mg): 47.6 ng·h/mL
AUC(0-tau), geometric mean ([1]; human, in vivo, 200 mg): 96.6 ng·h/mL
Cmax, geometric mean ([1]; human, in vivo, 200 mg): 21.4 ng/mL
T1/2, geometric mean ([1]; human, in vivo, 200 mg): 1.621 h
Tmax, median ([1]; human, in vivo, 200 mg): 2.00 h
T1/2, individual participant value(s) ([2]; human, in vivo): 1.878^b h
median Tmax ([2]; human, in vivo): 1.5 to 2 h
AUC(0-last), geometric mean ([2]; human, in vivo, 200 mg): 35.3 ng·h/mL
Cmax, geometric mean ([2]; human, in vivo, 200 mg): 19.5 ng/mL
Tmax, median ([2]; human, in vivo, 200 mg): 1.750 h
median Tmax (clinical): 1.5 to 2 h
AUC(0-last), geometric mean (clinical; 200 mg): 32.0 ng·h/mL
Cmax, geometric mean (clinical; 200 mg): 17.1 ng/mL
Tmax, median (clinical; 200 mg): 1.500 h

Cc1nnc(C(=O)NC(C)(C)c2nc(C(=O)NCc3ccc(F)cc3)c(O[C@@H]3O[C@H](C(=O)O)[C@@H](O)[C@H](O)[C@H]3O)c(=O)n2C)o1 [raltegravir glucuronide]
peak and overall exposure levels when raltegravir was dosed with belumosudil compared to dosing alone ([1]; Part 1): notable decrease
MPR Cmax (metabolite to parent ratio) ([1]; Raltegravir + belumosudil (Day 7)): 0.299
AUC(0-24), geometric mean [1, 5]: 1090 ng·h/mL
AUC(0-inf), geometric mean [1, 5]: 1170 ng·h/mL
AUC(0-last), geometric mean [1, 5]: 859 ng·h/mL
Cmax, geometric mean [1, 5]: 207 ng/mL
T1/2, geometric mean [1, 5]: approximately 3.9 h
Tmax, median [1, 5]: 4.000 h
T1/2, geometric mean ([1]; Raltegravir + belumosudil (Day 7), belumosudil 200 mg QD, listed as Raltegravir glucuronide): 3.919 h
MPR Cmax (metabolite to parent ratio) ([1]; Raltegravir alone (Day 1)): 0.506
AUC(0-24), geometric mean [1, 6]: 1710 ng·h/mL
AUC(0-inf), geometric mean [1, 6]: 1290 ng·h/mL
AUC(0-last), geometric mean [1, 6]: 1420 ng·h/mL
Cmax, geometric mean [1, 6]: 359 ng/mL
T1/2, geometric mean [1, 6]: ~1.5 h
Tmax, median [1, 6]: 4.000 h
T1/2, geometric mean ([1]; Raltegravir alone (Day 1), 400 mg single dose, listed as Raltegravir glucuronide): 1.541 h
AUC(0-last), adj geo mean [1, 12]: 859 ng·h/mL
Cmax, adj geo mean [1, 12]: 207 ng/mL
AUC(0-last), adj geo mean [1, 13]: 1420 ng·h/mL
Cmax, adj geo mean [1, 13]: 359 ng/mL
AUC(0-last), ratio of adj geo means (test/reference) [1, 14]: 60.38%
Cmax, ratio of adj geo means (test/reference) [1, 14]: 57.58%

From patent US20260232763A1 (Kadmon Corporation, LLC, priority 2023, published 2026)
